Experimental data as given in US11993610B2, “BCL-2 inhibitors” (Newave Pharmaceutical Inc., priority 2017, dated 2024).
Where two headings read alike, the source gives them in different places.

Experiments:
[1] = system: xenograft models of small-cell lung cancer and acute lymphoblastic leukemia; conditions: oral administration, alone; cited from earlier work
[2] = system: circulating platelets; conditions: clinical trial; cited from earlier work
[3] = system: H345 xenograft model; conditions: 100 mg/kg/day; cited from earlier work
[4] = system: BCL-2-dependent acute lymphoblastic leukemia RS4; 11 xenograft model; assay: In vivo RS4; 11 xenograft study; design: species or system CB.17 SCID mice; conditions: for BW Nadir / Tumor volume: po
Description: The CB.17 SCID mice were obtained at age 6-8 weeks from vendors and acclimated for a minimum 7-day period. The cancer cells were then implanted into the […] mice. Depending on the specific tumor type, tumors were typically detectable about two weeks following implantation. When tumor sizes reached ˜100-200 mm^3, the animals with appreciable tumor size and shape were randomly assigned into groups of 8 mice each, including one vehicle control group and treatment groups. Dosing varies depending on the purpose and length of each study, which typically proceeded for about 3-4 weeks. Tumor sizes and body weight were typically measured three times per week. In addition to the determination of tumor size changes, the last tumor measurement was used to generate the tumor size change ratio (T/C value), a standard metric developed by the National Cancer Institute for xenograft tumor evaluation. In most cases, % T/C values were calculated using the following formula: % T/C=100×ΔT/ΔC if ΔT>0. When tumor regression occurred (ΔT<0), however, the following formula was used: % T/T0=100×ΔT/T0.

[5] = system: RS4; 11; assay: In vitro anti-proliferation assay (ATPlite) in BCL-2-dependent ALL cell line RS4; 11; format: cell-based
Method: Cell antiproliferation was assayed by PerkinElmer ATPlite™ Luminescence Assay System. Briefly, the various test cancer cell lines were plated at a density of about 1×10^4 cells per well in Costar 96-well plates, and were incubated with different concentrations of compounds for about 72 hours in medium supplemented with 5% FBS or 10% normal human serum (NHS). One lyophilized substrate solution vial was then reconstituted by adding 5 mL of substrate buffer solution, and was agitated gently until the solution is homogeneous. About 50 μL of mammalian cell lysis solution was added to 100 μL of cell suspension per well of a microplate, and the plate was shaken for about five minutes in an orbital shaker at ˜700 rpm. This procedure was used to lyse the cells and to stabilize the ATP. Next, 50 μL substrate solution was added to the wells and microplate was shaken for five minutes in an orbital shaker at ˜700 rpm. Finally, the luminescence was measured by a PerkinElmer TopCount® Microplate Scintillation Counter. Such assays, carried out with a range of doses of test compounds, allowed the determination of the cellular anti-antiproliferative IC50 of the compounds of the present invention.

[6] = Mice PK study; format: in vivo; conditions: po, 10 mg/kg, CD-1 mouse; for AUC / half-life / bioavailability: plasma; for half-life: read-out: t½ (converted); for bioavailability: read-out: Bioavailabilty
Method: The pharmacokinetics of compounds were evaluated in CD-1 mouse via Intravenous and Oral Administration. The IV dose was administered as a slow bolus in the Jugular vein, and oral doses were administered by gavage. The formulation for IV dosing is 5% DMSO in 20% HPBCD in water, and the PO formulation is 2.5% DMSO, 10% EtOH, 20% Cremphor EL, 67.5% D5W. The PK time point for the IV arm was 5, 15, 30 min, 1, 2, 4, 6, 8, 12, 24 hours post dose, and for PO arm was 15, 30 min, 1, 2, 4, 6, 8, 12, 24 hours post dose. Approximately 0.03 mL blood was collected at each time point. Blood of each sample was transferred into plastic micro centrifuge tubes containing EDTA-K2 and plasma was collected within 15 min by centrifugation at 4000 g for 5 minutes in a 4′C centrifuge. Plasma samples were stored in polypropylene tubes. The samples were stored in a freezer at −75±15° C. prior to analysis. Concentrations of compounds in the plasma samples were analyzed using a LC-MS/MS method. WinNonlin (Phoenix™, version 6.1) or other similar software was used for pharmacokinetic calculations. The following pharmacokinetic parameters were calculated, whenever possible from the plasma concentration versus time data: IV administration: C0, CL, Vd, T1/2, AUCinf, AUClast, MRT, Number of Points for Regression; PO administration: Cmax, Tmax, T1/2, AUCinf, AUClast, F %, Number of Points for Regression. The pharmacokinetic data was described using descriptive statistics such as mean, standard deviation. Additional pharmacokinetic or statistical analysis was performed at the discretion of the contributing scientist, and was documented in the data summary.

[7] = cited from earlier work
[8] = Homo sapiens, RS4-11, 72 h, read-out: IC50, RS4, 11 5% FBS, about 72 hours, another study
[9] = Homo sapiens, RS4-11, 72 h, read-out: IC50, RS4, 11 5% FBS, about 72 hours, first study

Which results are given for `CC1(C)CCC(c2ccc(Cl)cc2)=C(CN2CCN(c3ccc(C(=O)NS(=O)(=O)c4ccc(N[C@H](CCN5CCOCC5)CSc5ccccc5)c(S(=O)(=O)C(F)(F)F)c4)cc3)CC2)C1` [ABT-263]?
tumor regressions [1]: complete tumor regressions; number of circulating platelets [2]: rapid, concentration-dependent decrease in the number of circulating platelets; TGI [3]: 80%; treated tumors indicating at least a 50% reduction in tumor volume [3]: 20%

What does the source list for `CC1(C)CCC(CN2CCN(c3ccc(C(=O)NS(=O)(=O)c4ccc(NCC5(F)CCOCC5)c([N+](=O)[O-])c4)c(N4CCOc5nc6[nH]ccc6cc54)c3)CC2)=C(c2ccc(Cl)cc2)C1` [Example 3, 4-(4-((4′-chloro-5,5-dimethyl-3,4,5,6-tetrahydro-[1,1′-biphenyl]-2-yl)methyl)piperazin-1-yl)-2-(2,3-dihydropyrrolo[3′,2′:5,6]pyrido[2,3-b][1,4]oxazin-1(6H)-yl)-N-((4-(((4-fluorotetrahydro-2H-pyran-4-yl)methyl)amino)-3-nitrophenyl)sulfonyl)benzamide]?
BW Nadir ([4]; 25 mg/kg, qd × 7): −3.60%; Tumor volume ([4]; 25 mg/kg, qd × 7): 368 mm^3; BW Nadir ([4]; 50 mg/kg, qd × 7): −2.90%; Tumor volume ([4]; 50 mg/kg, qd × 7): 26 mm^3; tumor regression ([4]; 100 mg/kg, day 18): complete regression of the tumor; BW Nadir ([4]; 100 mg/kg, qd × 7): −2.10%; Tumor volume ([4]; 100 mg/kg, qd × 7): 0 mm^3; effect on tumor growth ([4]; 7 doses (qd × 7), 25-100 mg/kg po): dose-dependent reduction of tumor growth; IC50 [5, 8]: 1.4 nM; IC50 [5, 9]: 2.6 nM

For `CC1(C)CCC(CN2CCN(c3ccc(C(=O)NS(=O)(=O)c4ccc(NCC5CCOCC5)c([N+](=O)[O-])c4)c(N4CCOc5nc6[nH]ccc6cc54)c3)CC2)=C(c2ccc(Cl)cc2)C1` [Example 2 (NW-4-8), 4-(4-[[2-(4-chlorophenyl)-4,4-dimethylcyclohex-1-en-1-yl]methyl]piperazin-1-yl)-N-([3-nitro-4-[(oxan-4-ylmethyl)amino]benzene]sulfonyl)-2-[13-oxa-2,4,10-triazatricyclo[7.4.0.0^[3,7]]trideca-1,3(7),5,8-tetraen-10-yl]benzamide], which “AUC(h * ng/mL)” value [6] is on record?
Its value is 10,365 h * ng/mL.

And the Bioavailabilty [6]?
Its Bioavailabilty is 68%.

And the “t½” value [6]?
Its value is 2.7 h.

What about the IC50 ([5]; read-out: IC50, RS4, 11 5% FBS, about 72 hours, first study) of the same molecule?
Its IC50 is 4.8 nM.

For `C[C@H]1CN(c2cc(N3CCN(CC4=C(c5ccc(Cl)cc5)CC(C)(C)CC4)CC3)ccc2C(=O)NS(=O)(=O)c2ccc(NCC3CCOCC3)c([N+](=O)[O-])c2)c2cc3cc[nH]c3nc2O1` [Example 9, (S)-4-(4-((4′-chloro-5,5-dimethyl-3,4,5,6-tetrahydro-[1,1′-biphenyl]-2-yl)methyl)piperazin-1-yl)-2-(3-methyl-2,3-dihydropyrrolo[3′,2′:5,6]pyrido[2,3-b][1,4]oxazin-1(6H)-yl)-N-((3-nitro-4-(((tetrahydro-2H-pyran-4-yl)methyl)amino)phenyl)sulfonyl)benzamide], which AUC [6] is on record?
Its AUC is 19900 ng·h/mL.

What about the half-life [6] of the same molecule?
Its half-life is 246 min.

What does the source list for `CC1(C)CCC(CN2CCN(c3ccc(C(=O)NS(=O)(=O)c4ccc(NCC5(F)CCOCC5)c([N+](=O)[O-])c4)c(N4CC(C)(C)Oc5nc6[nH]ccc6cc54)c3)CC2)=C(c2ccc(Cl)cc2)C1` [Example 7, 4-(4-((4′-chloro-5,5-dimethyl-3,4,5,6-tetrahydro-[1,1′-biphenyl]-2-yl)methyl)piperazin-1-yl)-2-(3,3-dimethyl-2,3-dihydropyrrolo[3′,2′:5,6]pyrido[2,3-b][1,4]oxazin-1(6H)-yl)-N-((4-(((4-fluorotetrahydro-2H-pyran-4-yl)methyl)amino)-3-nitrophenyl)sulfonyl)benzamide]?
AUC [6]: 11000 ng·h/mL; bioavailability [6]: 90%; half-life [6]: 192 min; IC50 [5, 8]: 5.6 nM

Which AUC [6] does the source give for `C[C@@H]1CN(c2cc(N3CCN(CC4=C(c5ccc(Cl)cc5)CC(C)(C)CC4)CC3)ccc2C(=O)NS(=O)(=O)c2ccc(NCC3CCOCC3)c([N+](=O)[O-])c2)c2cc3cc[nH]c3nc2O1` [Example 10, (R)-4-(4-((4′-chloro-5,5-dimethyl-3,4,5,6-tetrahydro-[1,1′-biphenyl]-2-yl)methyl)piperazin-1-yl)-2-(3-methyl-2,3-dihydropyrrolo[3′,2′:5,6]pyrido[2,3-b][1,4]oxazin-1(6H)-yl)-N-((3-nitro-4-(((tetrahydro-2H-pyran-4-yl)methyl)amino)phenyl)sulfonyl)benzamide] here?
The AUC was 35000 ng·h/mL.

And the bioavailability [6]?
The bioavailability was 78%.

What about the half-life [6] of the same molecule?
The half-life was 246 min.

Which AUC [6] does the source give for `C[C@@H]1CN(c2cc(N3CCN(CC4=C(c5ccc(Cl)cc5)CC(C)(C)CC4)CC3)ccc2C(=O)NS(=O)(=O)c2ccc(NCC3(F)CCOCC3)c([N+](=O)[O-])c2)c2cc3cc[nH]c3nc2O1` [Example 6 (R), (R)-4-(4-((4′-chloro-5,5-dimethyl-3,4,5,6-tetrahydro-[1,1′-biphenyl]-2-yl)methyl)piperazin-1-yl)-N-((4-(((4-fluorotetrahydro-2H-pyran-4-yl)methyl)amino)-3-nitrophenyl)sulfonyl)-2-(3-methyl-2,3-dihydropyrrolo[3′,2′:5,6]pyrido[2,3-b][1,4]oxazin-1(6H)-yl)benzamide] here?
Its AUC is 16100 ng·h/mL.

And the half-life [6]?
Its half-life is 192 min.

What about the IC50 [5, 8] of the same molecule?
Its IC50 is 1.3 nM.

With `CN(C)CC[C@H](CSc1ccccc1)Nc1ccc(S(=O)(=O)NC(=O)c2ccc(N3CCN(Cc4ccccc4-c4ccc(Cl)cc4)CC3)cc2)cc1[N+](=O)[O-]` [ABT-737] as the molecule, how does the aqueous solubility [7] read?
Its aqueous solubility is “low”.

Which “BW Nadir” value ([4]; 50 mg/kg, qd × 7) does the source give for `CC1(C)CCC(CN2CCN(c3ccc(C(=O)NS(=O)(=O)c4ccc(NCC5CCOCC5)c([N+](=O)[O-])c4)c(Oc4cnc5[nH]ccc5c4)c3)CC2)=C(c2ccc(Cl)cc2)C1` [ABT-199, reference compound] here?
Its value is −3.60%.

And the Tumor volume ([4]; 50 mg/kg, qd × 7)?
The Tumor volume was 0 mm^3.

What about the Tumor volume ([4]; 50 mg/kg, qd × 21) of the same molecule?
The Tumor volume was 17.4 mm^3.

What about the IC50 [5, 9] of the same molecule?
The IC50 was 5.5 nM.

Which AUC [6] does the source give for `C[C@H]1CN(c2cc(N3CCN(CC4=C(c5ccc(Cl)cc5)CC(C)(C)CC4)CC3)ccc2C(=O)NS(=O)(=O)c2ccc(NCC3(F)CCOCC3)c([N+](=O)[O-])c2)c2cc3cc[nH]c3nc2O1` [Example 6 (S), (S)-4-(4-((4′-chloro-5,5-dimethyl-3,4,5,6-tetrahydro-[1,1′-biphenyl]-2-yl)methyl)piperazin-1-yl)-N-((4-(((4-fluorotetrahydro-2H-pyran-4-yl)methyl)amino)-3-nitrophenyl)sulfonyl)-2-(3-methyl-2,3-dihydropyrrolo[3′,2′:5,6]pyrido[2,3-b][1,4]oxazin-1(6H)-yl)benzamide] here?
Its AUC is 12100 ng·h/mL.

And the bioavailability [6]?
Its bioavailability is 74%.

What about the IC50 [5, 8] of the same molecule?
Its IC50 is 3.2 nM.
